Patent publication US20250051263A1, “NOVEL IONIZABLE LIPIDS AND LIPID NANOPARTICLES AND METHODS OF USING THE SAME” (Sail Biomedicines, Inc., priority 2021, published 2025)

Experiments:
[1] = TNS (pKa) assay, apparent LNP pKa; type: physicochemical; conditions: for pKa (TNS): Example 5 LNP lipid:DOPE:Plant Cholesterol:DMPE-PEG2k 35:16:46.5:2.5, FLUC/EPO 1:1 mRNA, N:P 6:1
Protocol: (protocol adapted from: A Novel Amino Lipid Series for mRNA Delivery: Improved Endosomal Escape and Sustained Pharmacology and Safety in Non-human Primates, Sabnis, Staci et al., Molecular Therapy, Volume 26, Issue 6, 1509-1519) 20 buffers (10 mM sodium phosphate, 10 mM sodium borate, 10 mM sodium citrate, and 150 mM sodium chloride, in Distilled Water) of unique pH values ranging from 3.0-12.0 were prepared using 1M sodium hydroxide and 1M hydrochloric acid. 3.25 uL of LNPs (0.04 mg/mL mRNA, in PBS) were incubated with 2 μL of TNS reagent (0.3 mM, in DMSO) and 90 μL of buffer for each pH value (described above) in a 96-well black-walled plate. Each pH condition was performed in triplicate wells. The TNS fluorescence was measured using a Biotek Cytation Plate reader at excitation/emission wavelengths of 321/445 nm. The fluorescence values were then plotted and fit using a 4-parameter sigmoid curve. From the fit, the pH value yielding the half-maximal fluorescence was calculated and reported as the apparent LNP pKa value.
For pKa measurement, a […] assay was conducted according to those described in Sabnis et al., Molecular Therapy, 26(6):1509-19), which is incorporated herein by reference in its entirety. Briefly, 20 buffers (10 mM sodium phosphate, 10 mM sodium borate, 10 mM sodium citrate, and 150 mM sodium chloride, in distilled Water) of unique pH values ranging from 3.0-12.0 were prepared using 1M sodium hydroxide and 1M hydrochloric acid. 3.25 μL of a LNP composition (0.04 mg/mL mRNA, in PBS) was incubated with 2 μL of TNS reagent (0.3 mM, in DMSO) and 90 μL of buffer for each pH value (described above) in a 96-well black-walled plate. Each pH condition was performed in triplicate wells. The TNS fluorescence was measured using a Biotek Cytation Plate reader at excitation/emission wavelengths of 321/445 nm. The fluorescence values were then plotted and fit using a 4-parameter sigmoid curve. From the fit, the pH value yielding the half-maximal fluorescence was calculated and reported as the apparent LNP pKa value.

[2] = tested on: Balb/c mice; assay: In-vivo bioluminescent imaging after IV injection of Fluc mRNA LNP; conditions: for Bioluminescence (IV) Liver / Bioluminescence (IV) Lung / Bioluminescence (IV) Spleen / Bioluminescence (IV) Whole Body / Spleen: Liver Ratio: Example 5 LNP (DOPE 35:16:46.5:2.5), 5 μg FLUC + 5 μg EPO; for Bioluminescence (IV) Liver / Bioluminescence (IV) Lung / Bioluminescence (IV) Spleen / Bioluminescence (IV) Whole Body / Bioluminescence Liver / Bioluminescence Lung / Bioluminescence Spleen: 4-6 hours post-dose; for Bioluminescence (IV) Liver / Bioluminescence (IV) Lung / Bioluminescence (IV) Spleen / Bioluminescence (IV) Whole Body / Spleen: Liver Ratio / Bioluminescence Liver / Bioluminescence Lung / Bioluminescence Spleen: IV; for Spleen: Liver Ratio: ratio of bioluminescence; for Bioluminescence Liver / Bioluminescence Lung / Bioluminescence Spleen: 5 ug Fluc+5 ug EPO mRNA; for bioluminescence in the liver, spleen, and lung: used as part of an ionizable lipid scaffold (LNP), Table 1
[3] = LNP ionizable lipid:DOPE:Plant Chol.:DMPE-PEG2k 35:16:46.5:2.5 (Table 1)
[4] = LNP ionizable lipid:DSPC:Plant Chol.:DMPE-PEG2k 50:10:38.5:1.5
[5] = LNP lipid:DOPE:Plant Chol.:DMPE-PEG2k 35:16:46.5:2.5 (Table 1)
[6] = LNP lipid:DSPC:Plant Chol.:DMPE-PEG2k 50:10:38.5:1.5

SMILES | pKa (TNS) [1] | pKa [1, 3] | pKa [1, 4] | Bioluminescence (IV) Liver [2] | Bioluminescence (IV) Lung [2] | Bioluminescence (IV) Spleen [2] | Bioluminescence (IV) Whole Body [2] | Spleen: Liver Ratio [2] | Bioluminescence Liver [2, 5] | Bioluminescence Lung [2, 5] | Bioluminescence Spleen [2, 5] | Bioluminescence Liver [2, 6] | Bioluminescence Lung [2, 6] | Bioluminescence Spleen [2, 6] | bioluminescence in the liver, spleen, and lung [2]
CCCCCCCCCCCOC(=O)CCCCCN(CCCCCCCC(=O)OC(CCCCCCCC)CCCCCCCC)CCNC(=O)/C=C/C(=O)NCCN(CCCCCCCC(=O)OC(CCCCCCCC)CCCCCCCC)CCCCCC(=O)OCCCCCCCCCCC [Compound 2252, 1-octylnonyl 8-[2-[[(E)-4-[2-[[8-(1-octylnonoxy)-8-oxo-octyl]-(6-oxo-6-undecoxy-hexyl)amino]ethylamino]-4-oxo-but-2enoyl]amino]ethyl-(6-oxo-6-undecoxy-hexyl)amino]octanoate] | 6.06 | 6.06 | 5.49 | 1.5E+07 | 3.3E+03 | 2.3E+05 | 7.2E+07 | 0.015 | 1.52E+07 | 3.27E+03 | 2.32E+05 | 2.41E+05 | 1.03E+04 | 4.69E+05 | improved bioluminescence
C=C(CN(CCCCCCCC(=O)OC(CCCCCCCC)CCCCCCCC)CCCCCC(=O)OCCCCCCCCCCC)CN(CCCCCCCC(=O)OC(CCCCCCCC)CCCCCCCC)CCCCCC(=O)OCCCCCCCCCCC [Compound 2253, 1-octylnonyl 8-[2-[[[8-(1-octylnonoxy)-8-oxo-octyl]-(6-oxo-6-undecoxy-hexyl)amino]methyl]allyl-(6-oxo-6-undecoxy-hexyl)amino]octanoate] | 3.66 | 3.66 | 3.48 | 1.3E+03 | 7.2E+02 | 1.2E+03 | 3.8E+03 | 0.937 | 1.33E+03 | 7.18E+02 | 1.24E+03 | 1.30E+03 | 6.16E+02 | 9.98E+02 | improved bioluminescence
CCCCCCCCCC(=O)OCCCCCCCN(CCCCCCCC(=O)OC(CCCCCCCC)CCCCCCCC)CCNC(=O)CCC(=O)NCCN(CCCCCCCOC(=O)CCCCCCCCC)CCCCCCCC(=O)OC(CCCCCCCC)CCCCCCCC [Compound 2272, 7-[2-[[4-[2-[7-decanoyloxyheptyl-[8-(1-octylnonoxy)-8-oxo-octyl]amino]ethylamino]-4-oxo-butanoyl]amino]ethyl-[8-(1-octylnonoxy)-8-oxo-octyl]amino]heptyl decanoate] | 6.48 | – | – | 1.8E+07 | 1.5E+04 | 1.0E+06 | 1.3E+08 | 0.055 | – | – | – | – | – | – | –
CCCCCCCCC(CCCCCCCC)OC(=O)CCCCCCCN(CCCCCCCC(=O)OC(CCCCCCCC)CCCCCCCC)CCNC(=O)CCC(=O)NCCN(CCCCCCCC(=O)OC(CCCCCCCC)CCCCCCCC)CCCCCCCC(=O)OC(CCCCCCCC)CCCCCCCC [Compound 2275, 1-octylnonyl 8-[2-[[4-[2-[bis[8-(1-octylnonoxy)-8-oxo-octyl]amino]ethylamino]-4-oxo-butanoyl]amino]ethyl-[8-(1-octylnonoxy)-8-oxo-octyl]amino] octanoate] | 6.03 | – | – | 6.8E+07 | 1.6E+04 | 2.3E+05 | 4.8E+08 | 0.003 | – | – | – | – | – | – | –
CCCCCCCCCCCNC(=O)CCCCCN(CCCCCCCC(=O)NC(CCCCCCCC)CCCCCCCC)CCNC(=O)CCC(=O)NCCN(CCCCCCCC(=O)NC(CCCCCCCC)CCCCCCCC)CCCCCC(=O)NCCCCCCCCCCC [Compound 2282, N,N′-bis[2-[[8-(1-octylnonylamino)-8-oxo-octyl]-[6-oxo-6-(undecylamino)hexyl]amino]ethyl]butanediamide] | 6.92 | – | – | 5.7E+07 | 3.8E+04 | 5.4E+06 | 7.7E+08 | 0.092 | – | – | – | – | – | – | –
CCCCCCCCC(CCCCCCCC)OC(=O)CCCCCCCN(CCCCCCCC(=O)OC(CCCCCCCC)CCCCCCCC)CCNC(=O)CCCC(=O)NCCN(CCCCCCCC(=O)OC(CCCCCCCC)CCCCCCCC)CCCCCCCC(=O)OC(CCCCCCCC)CCCCCCCC [Compound 2320, 1-octylnonyl 8-[2-[[5-[2-[bis[8-(1-octylnonoxy)-8-oxo-octyl]amino]ethylamino]-5-oxo-pentanoyl]amino]ethyl-[8-(1-octylnonoxy)-8-oxo-octyl]amino]octanoate] | 6.07 | – | – | 8.1E+07 | 4.0E+03 | 4.4E+05 | 9.5E+08 | 0.007 | – | – | – | – | – | – | –
CCCCCC(CCCCC)CCCOC(=O)CCCCCCCN(CCCCCCCC(=O)OCCCC(CCCCC)CCCCC)CCNC(=O)CCC(=O)NCCN(CCCCCCCC(=O)OCCCC(CCCCC)CCCCC)CCCCCCCC(=O)OCCCC(CCCCC)CCCCC [Compound 2332, bis(4-pentyl-nonyl)13,16-dioxo-9,20-bis(8-oxo-8-((4-pentylnon-yl)oxy)octyl)-9,12,17,20-tetraazaocta-cosanedioate] | 6.57 | – | – | 2.8E+07 | – | 3.5E+05 | 9.8E+07 | 0.045 | – | – | – | – | – | – | –
CCCCCCCCCCCOC(=O)CCCCCN(CCCCCCCC(=O)OC(CCCCCCCC)CCCCCCCC)CCCNC(=O)CN(CC(=O)NCCCN(CCCCCCCC(=O)OC(CCCCCCCC)CCCCCCCC)CCCCCC(=O)OCCCCCCCCCCC)C(=O)CCN1CCCC1 [Compound 2353, 1-octylnonyl8-[3-[[2-[[2-[3-[[8-(1-octylnonoxy)-8-oxo-octyl]-(6-oxo-6-undecoxy-hexyl)amino]propylamino]-2-oxo-ethyl]-(3-pyrrolidin-1-ylpropanoyl)amino]acetyl]amino]propyl-(6-oxo-6-undecoxy-hexyl)amino]octanoate] | 7.01 | – | – | 9.7E+03 | 3.2E+04 | 1.3E+05 | 7.8E+04 | 7.617 | – | – | – | – | – | – | –
